According to patent US10072012B2, “Process for crystalline pemetrexed dipotassium salt” (SHILPA MEDICARE LIMITED, priority 2013, dated 2018):

Assay: Handling and storage stability of crystalline Form-SP9
Type: physicochemical
Details: handling and storage for longer time; solid state
Source text: Crystalline Form-SP9 retains its stoichiometry even on exposure to uncontrolled environmental conditions. This stable form thus, offers various advantages in terms of storage, shelf life and favorable impurity profile.

Nc1nc2[nH]cc(CCc3ccc(C(=O)N[C@@H](CCC(=O)[O-])C(=O)[O-])cc3)c2c(=O)[nH]1.[K+].[K+] [Form-SP9, Pemetrexed dipotassium]
stability of the crystal form (morphology and physicochemical characteristics): very stable crystal lattice
